pIC50: −log10 of the molar value. Where a name gives a salt, the structure may show the parent alone. Read-outs that look alike come from different tables or passages of the source.
Experiments:
Assay type in all cases: cell-based
[1] = system: HTT; assay: Gene panel canonical junction qPCR assay, HTT CJ mRNA; conditions: Table 9, CJ mRNA decrease, read-out: HTT IC50 (decrease in CJ mRNA levels)
Method: (§1) To set up 10 uL RT-qPCR reactions, cell lysates were transferred to 384-well qPCR plates containing the master mix according to the table below. The plates were sealed, gently vortexed, and spun down before the run. The volumes were adjusted accordingly in some instances where the reaction was carried in 20 uL. The table below summarizes the components of the RT-qPCR reactions:
(§2) The RT-qPCR reaction was performed using a QuantStudio (ThermoFisher) under the following fast cycling conditions. All samples and standards were analyzed at least in duplicate. In some instances, bulk room temperature (RT) step of 5-10 minutes was completed for all plates before proceeding with qPCR. The table below summarizes the PCR cycle:
(§3) The data analysis was performed by first determining the ΔCt vs the housekeeper gene. This ΔCt was then normalized against the DMSO control (ΔΔCt) and converted to RQ (relative quantification) using the 2^(−ΔΔCt) equation. The RQ were then converted to a percentage response by arbitrarily setting an assay window of 3.5 ΔCt for HTT-CJ and an assay window of 9 ΔCt for HTT-AJ. […] The percentage response was then fitted to the 4 parametric logistic equation to evaluate the concentration dependence of compound treatment. The increase in AJ mRNA is reported as AC50 (compound concentration having 50% response in AJ increase) while the decrease in CJ mRNA levels is reported as IC50 (compound concentration having 50% response in CJ decrease).
(§4) Additional studies were carried out for a larger panel of genes using the protocol provided above. The junction between flanking upstream and downstream exons was used to design canonical junction qPCR assays. At least one of the forward primer, reverse primer or the CY5-labeled 5′ nuclease probe (with 3′ quencher such as ZEN/Iowa Black FQ) was designed to overlap with the exon junction to capture the CJ mRNA transcript. BLAST was used to confirm the specificity of the probeset and parameters such as melting temperature, GC content, amplicon size, and primer dimer formation are considered during their design. Data for the decrease in CJ mRNA levels for three exemplary genes (HTT, SMN2, and Target C) analyzed in this panel are reported as IC50 (compound concentration having 50% response in CJ decrease).

[2] = system: HTT; assay: Splicing assay (RT-qPCR on cell lysates) monitoring HTT splice variants: AJ and CJ mRNA; conditions: concentration having 50% response
Procedure, shortened: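 Cell lysates were analysed by RT-qPCR, with ΔCt taken against a housekeeping gene and normalised to DMSO to give RQ by 2^(−ΔΔCt). Assay windows were set at 9 ΔCt for AJ and 3.5 ΔCt for CJ, and 4-parameter fits gave AC50 for the AJ increase and IC50 for the CJ decrease.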

[3] = system: Target C; assay: Gene panel canonical junction qPCR assay, Target C CJ mRNA; conditions: Table 9, CJ mRNA decrease, read-out: Target C IC50 (decrease in CJ mRNA levels)
Method: as §1, §2, §3, §4

[4] = system: SMN2; assay: Gene panel canonical junction qPCR assay, SMN2 CJ mRNA; conditions: Table 9, CJ mRNA decrease, read-out: SMN2 IC50 (decrease in CJ mRNA levels)
Method: as §1, §2, §3, §4

[5] = Table 8, decrease in CJ mRNA, read-out: HTT CJ AC50
[6] = Table 8, increase in AJ mRNA, read-out: HTT AJ AC50
[7] = Table 7, decrease in CJ mRNA, read-out: HTT CJ AC50
[8] = Table 7, increase in AJ mRNA, read-out: HTT AJ AC50

Row | Compound | pIC50 [1] | AC50 [2, 5] [nM] | AC50 [2, 6] [nM] | pIC50 [3] | pIC50 [4] | AC50 [2, 7] [nM] | AC50 [2, 8] [nM]
1 | Cc1[nH]ncc1-c1ccc(-c2ccc(N(C)C3CC(C)(C)NC(C)(C)C3)nn2)c2ncsc12 [Compound 176] | < 5.00 | > 10000 | 1000 to 10000 | < 5.00 | < 5.00 | – | –
2 | c1nc2c(-c3cn[nH]c3)ccc(-c3ccc(N4C[C@H]5CNC[C@H]5C4)nn3)c2s1 [Compound 194, 7-{6-[(exo)-hexahydro-1H-pyrrolo[3,4-c]pyrrol-2-yl]pyridazin-3-yl}-4-(1H-pyrazol-4-yl)-1,3-benzothiazole hydrochloride] | 5.00 to 6.00 | 1000 to 10000 | > 10000 | < 5.00 | 6.00 to 7.00 | – | –
3 | c1n[nH]cc1-c1ccc(-c2ccc(S[C@@H]3C[C@H]4CC[C@@H](C3)N4)nn2)c2[nH]ncc12 [Compound 221] | < 5.00 | > 10000 | > 10000 | < 5.00 | < 5.00 | – | –
4 | c1nc2c(-c3cn[nH]c3)ccc(-c3ccc(O[C@@H]4C[C@H]5CC[C@@H](C4)N5)nn3)c2s1 [Compound 184] | 6.00 to 7.00 | 100 to 1000 | < 100 | 6.00 to 7.00 | > 7.00 | < 500 | 500 to 5000
5 | CN(c1ccc(-c2ccc(-c3ccc(=O)n(C)c3)c3scnc23)nn1)C1CC(C)(C)NC(C)(C)C1 [Compound 178] | < 5.00 | > 10000 | > 10000 | < 5.00 | < 5.00 | – | –
6 | CN(c1ccc(-c2ccc(-n3cccn3)c3nc[nH]c23)nn1)[C@@H]1C[C@H]2CC[C@@H](C1)N2 [Compound 170] | 5.00 to 6.00 | 1000 to 10000 | 1000 to 10000 | < 5.00 | 6.00 to 7.00 | 500 to 5000 | > 5000
7 | c1nc2c(-c3cn[nH]c3)ccc(-c3ccc(N4CCC5(CC4)CNC5)nn3)c2s1 [Compound 188] | < 5.00 | > 10000 | > 10000 | < 5.00 | < 5.00 | > 5000 | > 5000
8 | CC1(C)CC(Oc2ccc(-c3ccc(-c4cn[nH]c4)c4ncsc34)nn2)CCN1 (centres unmarked) [Compound 182] | 5.00 to 6.00 | 1000 to 10000 | 1000 to 10000 | 5.00 to 6.00 | 6.00 to 7.00 | < 500 | 500 to 5000
9 | [2H]C([2H])([2H])N(c1ccc(-c2ccc(-c3cn[nH]c3)c3ncsc23)nn1)[C@@H]1C[C@H]2CC[C@@H](C1)N2 [Compound 210, (exo-)-N-(D3)methyl-N-[6-[4-(1H-pyrazol-4-yl)-1,3-benzothiazol-7-yl]pyridazin-3-yl]-8-azabicyclo [3.2.1]octan-3-amine] | > 7.00 | < 100 | < 100 | > 7.00 | > 7.00 | – | –
10 | CN(c1ccc(-c2ccc(-c3cnc(=O)[nH]c3)c3scnc23)nn1)C1CC(C)(C)NC(C)(C)C1 [Compound 179] | 6.00 to 7.00 | 100 to 1000 | 100 to 1000 | 6.00 to 7.00 | 6.00 to 7.00 | – | –
11 | CN(c1ccc(-c2ccc(-c3cn[nH]c3)c3ncsc23)nn1)[C@@H]1C[C@H]2CCC[C@@H](C1)N2 [Compound 226] | > 7.00 | < 100 | < 100 | > 7.00 | > 7.00 | – | –
12 | c1nc2c(-c3cn[nH]c3)ccc(-c3ccc(N4CC5(CCNCC5)C4)nn3)c2s1 [Compound 197] | 5.00 to 6.00 | 1000 to 10000 | 1000 to 10000 | < 5.00 | 5.00 to 6.00 | – | –
13 | [2H]C([2H])([2H])N(c1ccc(-c2ccc(-c3cn[nH]c3)c3ncsc23)nn1)C1CCNCC1 [Compound 223, N-(D3)methyl-N-(piperidin-4-yl)-6-[4-(1H-pyrazol-4-yl)-1,3-benzothiazol-7-yl] pyridazin-3-amine] | 5.00 to 6.00 | 1000 to 10000 | 1000 to 10000 | 5.00 to 6.00 | 6.00 to 7.00 | – | –
14 | CCN(c1ccc(-c2ccc(-c3cn[nH]c3)c3ncsc23)nn1)[C@@H]1C[C@H]2CCC[C@@H](C1)N2 [Compound 228] | > 7.00 | < 100 | 100 to 1000 | > 7.00 | > 7.00 | – | –
15 | CN(c1ccc(-c2ccc(-c3cn[nH]c3)c3ncsc23)nn1)C1CCNCC1 [Compound 222, N-methyl-N-(piperidin-4-yl)-6-[4-(1H-pyrazol-4-yl)-1,3-benzothiazol-7-yl]pyridazin-3-amine] | 5.00 to 6.00 | 1000 to 10000 | 1000 to 10000 | 5.00 to 6.00 | 6.00 to 7.00 | – | –
16 | c1nc2c(-c3cn[nH]c3)ccc(-c3ccc(S[C@@H]4C[C@H]5CC[C@@H](C4)N5)nn3)c2s1 [Compound 200, 7-{6-[(exo)-8-azabicyclo[3.2.1]octan-3-ylsulfanyl]pyridazin-3-yl}-4-(1H-pyrazol-4-yl)-1,3-benzothiazole] | < 5.00 | > 10000 | > 10000 | < 5.00 | < 5.00 | – | –
17 | Fc1cc(-c2ccc(O[C@@H]3C[C@H]4CC[C@@H](C3)N4)nn2)c2[nH]ncc2c1-c1cn[nH]c1 [Compound 216, 7-[6-[(exo)-8-azabicyclo[3.2.1]octan-3-yloxy]pyridazin-3-yl]-5-fluoro-4-(1H-pyrazol-4-yl)-1H-indazole] | > 7.00 | < 100 | < 100 | 6.00 to 7.00 | > 7.00 | – | –
18 | c1nc2c(-c3cn[nH]c3)ccc(-c3ccc(N4CCC5(CCNCC5)C4)nn3)c2s1 [Compound 190] | < 5.00 | > 10000 | > 10000 | < 5.00 | < 5.00 | – | –
19 | c1nc2c(-c3cn[nH]c3)ccc(-c3ccc(NC4CCNCC4)nn3)c2s1 [Compound 214, N-(piperidin-4-yl)-6-[4-(1H-pyrazol-4-yl)-1,3-benzothiazol-7-yl]pyridazin-3-amine] | < 5.00 | > 10000 | 1000 to 10000 | < 5.00 | 6.00 to 7.00 | – | –
20 | c1n[nH]cc1-c1ccc(-c2ccc(N3CC4(CCCNC4)C3)nn2)c2[nH]ncc12 [Compound 218] | < 5.00 | > 10000 | > 10000 | < 5.00 | < 5.00 | – | –
21 | CCN(c1ccc(-c2ccc(-c3cn[nH]c3)c3ncsc23)nn1)C1CC(C)(C)NC(C)(C)C1 [Compound 225, N-ethyl-6-[4-(1H-pyrazol-4-yl)-1,3-benzothiazol-7-yl]-N-(2,2,6,6-tetramethylpiperidin-4-yl)pyridazin-3-amine] | 5.00 to 6.00 | 1000 to 10000 | 1000 to 10000 | 5.00 to 6.00 | 6.00 to 7.00 | – | –

From US20230140983A1, “PYRIDAZINE DERIVATIVES FOR MODULATING NUCLEIC ACID SPLICING” (REMIX THERAPEUTICS INC., priority 2020, published 2023)
